Patent publication US7985536B2, “Method for regulating NO production in an isolated organ or tissue during warm perfusion” (priority 1999, dated 2011)
Where “and” joins values, the source holds several entries; their conditions need not be identical. Identical values can stand only once.

Tests used:
[1] = system: hemeoxygenase-1 (HO-1); experiment: Up-regulation of hemeoxygenase-1 by CoPP during EMS perfusion; parameters: species or system canine; conditions: individual kidneys
Protocol: EMS perfusion can be used to deliver a drug to an organ, section of anatomy or tissue in a targeted fashion. In addition, during any procedure the EMS supported ongoing metabolism and function can be monitored providing a mechanism to quantify the impact of the drug and any corresponding cellular response to it. For example, a compound known to cause the up-regulation of the heat-shock protein, hemeoxygenase-1 was administered to an isolated kidney being perfused in accordance with the technology of the present invention. The EMS technology provided adequate support of renal metabolism and function during ex vivo perfusion to increase expression of the hemeoxygenase-1 (HO-1) enzyme within six hours.
(§1) Metabolic and functional evaluations consisted of quantification of the ex vivo kidney function during the period of HO-1 induction. Using the EMS technology, kidneys were maintained in a metabolically active state by perfusion at near physiologic temperature. Kidneys weighing approximately 70-90 gm were procured following brain death with concomitant warm ischemia of no more than 15 minutes. The kidneys were then transitioned to EMS perfusion at 32° C. to 34° C. The kidneys were evaluated for oxidative metabolism, vascular dynamics and organ function. The organ parameters were allowed to stabilize for one hour prior to the evaluation of function. Samples from the arterial and venous lines were collected, along with the urine produced during the perfusions. PO2 measurements for the arterial and venous samples were made with a Radiometer ABL5.

[2] = system: canine kidneys; experiment: CoPP in the perfusate during EMS perfusion: kidney metabolism and function; conditions: for F.R. (vascular flow rate) / GFR (glomerular filtration rate) / MAP (mean arterial pressure) / Urinary Protein / Urine Flow / Vasc Res (vascular resistance) / 02 Cons (oxygen consumption): n = 2, mean
[3] = system: canine kidneys; experiment: as above
Protocol: as §1, with “Test group (n=3) canine kidneys were excised, cannulated, flushed of blood with EMS perfusion solution and placed on EMS perfusion at 32° C.-34° C. for 6 hours with either 5, 25 or 50 uM cobalt protoporphyrin (CoPP) added to the perfusate. Metabolic” for “Metabolic”
Oxygen consumption was calculated as: ml/min/gm=(PO2 artery−PO2 venous)×(flow rate).
The vascular resistance was calculated as: vasc resis=mean arterial pressure/mean flow rate
Creatinine was added to the perfusate as a tracer. The urine made during the EMS perfusions at 32° C. to 34° C. was collected and tested. The concentration of creatinine was measured on an IDEXX Vet Lab chemistry analyzer and the glomerular filtration rate (GFR) was calculated as: […]

[4] = system: isolated canine kidneys; experiment: Nitric oxide flux in isolated canine kidneys, 48 hour perfusion; conditions: for mean NO3 accumulation in the perfusion solution: following 48 hours, ion chromatograph, mean±standard deviation; for net weight gain (edema): isolated canine kidneys, L-NAME and L-NIL 100 μM added to the perfusion solution
Protocol: Kidneys were perfused with the perfusion solution and process described above for 48 hours.
The concentration of nitrate in the solution was determined by analysis on a Dionex DX-500 ion chromatograph using an AS-15 column and KOH eluant that varied in concentration by a programmed gradient. Alternatively, an electrode can be utilized to monitor NO flux in stream. All samples were analyzed in duplicate and were diluted by a factor of 11 and the values expressed as the mean±standard deviation for the kidneys perfused with the solution of the invention or control kidneys perfused with RPMI medium.

[5] = system: canine kidneys; experiment: Regulation of NO flux by titrating L-arginine (nitrite, electrochemical detection)
Protocol: It is desirable to control the flux of NO in tissues, limbs and organs while they are deprived of physiologic blood flow. In certain clinical situations such as the case of septic shock it may be necessary to inhibit the production of NO. Therefore, the ability to regulate the production of NO was evaluated using the solution and process of the present invention. The production of NO was monitored using electrochemical detection using a carbon-modified anode in stream. Oxidation of NO transfers electrons from NO to the anode generating nitrosonium cation that is converted to nitrite as follows: NO→NO+→HONO→NO2^− Canine kidneys were perfused with the solution of the invention without L-arginine. The substrate L-arginine was added to the perfusion path separately to measure the ability to control NO production.
Controls consisted of kidneys perfused with L-Name to inhibit NOS function and kidneys perfused with the solution and process of the present invention but without L-arginine.

[6] = system: kidneys; experiment: In situ kidney perfusion during operative procedure, serum creatinine 24 hours posttreatment; type: in vivo; conditions: six hours in situ acellular perfusion, n = 2, L-NAME 100 uM
Description: The ability to control NOS function during in situ perfusion was observed by placement of cannulas in the aorta above the renal arteries and in the vena cava below the renal veins. In this manner, the renal vasculature could be isolated from vascular blood flow during surgical procedures repairing aortic aneurysm. The kidneys were perfused with the solution of the present invention by opening the perfusion circuit until the blood was flushed from the kidneys. The circuit was then closed and the kidneys perfused acellularly until the end of the surgical procedure and reflow of blood was restored. The cannulas were removed, the incision in the aorta and vena cava closed and blood flow reinstated. During six hours of acellular perfusion the concentration of NO3-was determined every 2 hours and the concentration of L-arginine was adjusted to control the NO flux around the set range using the method described above. Following reperfusion with vascular blood flow, the renal function was evaluated 24 hours posttreatment by determining the serum creatinine (SCR) concentration. Controls consisted of kidneys perfused without L-arginine and kidneys perfused with the addition of L-NAME (100 uM).

[7] = system: iNOS; conditions: cited from earlier work
[8] = system: kidneys; experiment: Control of NO3 production around a target during 48 hours perfusion
Protocol: Kidneys were perfused for 48 hours and during the perfusion the kidneys were monitored every 4 hours for the concentration of NO3^− in the circulation. Alternatively, NO concentration can be evaluated by measuring NO directly using an electrode or by measurement of the decrease in concentration of the substrate such as L-arginine. […] The perfusate was exchanged at the rate of 20% v/v every 4 hours with the concentration of L-arginine varying to control the production of NO.

[9] = system: human kidneys; experiment: Vasodilation in human kidneys perfused ex vivo, 12 hours
Protocol: Human kidneys were perfused ex vivo in order to evaluate the continued function of NOS in the formation of a continual flux of NO. • Group 1—Kidneys perfused with the solution and process of the invention, n=2 • Group 2—Kidneys perfused with heparinized blood with the pharmacologic agent, nitroprusside added at doses of 1.0, 10.0 and 100.0 mg, n=2
The ability to vasodilate and sustain stable perfusion pressures was determined in both groups during 12 hours of ex vivo perfusion.

[10] = system: canine kidneys; experiment: Endothelial-dependent vasodilation by acetylcholine in perfused canine kidneys; conditions: acetylcholine 1.0 mg; kidneys perfused with the solution of the invention
Protocol: Canine kidneys were tested for the ability to produce NO by induction with acetylcholine at a concentration of 1.0, 10.0 or 100 mg. The acetylcholine was administered to the perfusion path of kidneys using the solution and process of this invention and also in control kidneys that were perfused with RPMI medium alone.

[11] = system: canine kidneys; experiment: Nitrate accumulation and acetylcholine vasodilation after 30 minutes warm ischemia and 18 hours perfusion; conditions: One mg of acetylcholine

C=CC1=C(C)c2cc3[n-]c(cc4nc(cc5[n-]c(cc1n2)c(C)c5CCC(=O)[O-])C(CCC(=O)[O-])=C4C)c(C)c3C=C.[Co+2].[H+].[H+] [CoPP, cobalt protoporphyrin]
Hemeoxygenase-1, CoPP induction during EMS perfusion ([1]; 5 μM CoPP): 9.6 IU and 13.2 IU
Hemeoxygenase-1, CoPP induction during EMS perfusion ([1]; 10 μM CoPP): 16.3 IU and 13.4 IU
Hemeoxygenase-1, CoPP induction during EMS perfusion ([1]; 25 μM CoPP): 16.1 IU and 16.7 IU
Hemeoxygenase-1, CoPP induction during EMS perfusion ([1]; 50 μM CoPP): 15.2 IU and 14.7 IU
F.R. (vascular flow rate) ([2]; 5 uM CoPP): 114 cc/min
GFR (glomerular filtration rate) ([2]; 5 uM CoPP): 7.02 mL/min
MAP (mean arterial pressure) ([2]; 5 uM CoPP): 47 mmHg
Urinary Protein ([2]; 5 uM CoPP): 0.16 gm/dL
Urine Flow ([2]; 5 uM CoPP): 6 cc/hr
Vasc Res (vascular resistance) ([2]; 5 uM CoPP): 0.41
02 Cons (oxygen consumption) ([2]; 5 uM CoPP, 6 hours EMS perfusion): 0.18 cc/min/gm
02 Cons (oxygen consumption) ([2]; 25 uM CoPP): 0.23 cc/min/gm
F.R. (vascular flow rate) ([2]; 25 uM CoPP): 114 cc/min
GFR (glomerular filtration rate) ([2]; 25 uM CoPP): 2.05 mL/min
MAP (mean arterial pressure) ([2]; 25 uM CoPP): 47 mmHg
Urinary Protein ([2]; 25 uM CoPP): 3.62 gm/dL
Urine Flow ([2]; 25 uM CoPP): 2 cc/hr
Vasc Res (vascular resistance) ([2]; 25 uM CoPP): 0.41
02 Cons (oxygen consumption) ([2]; 50 uM CoPP): 0.17 cc/min/gm
F.R. (vascular flow rate) ([2]; 50 uM CoPP): 108 cc/min
GFR (glomerular filtration rate) ([2]; 50 uM CoPP): 0.6 mL/min
MAP (mean arterial pressure) ([2]; 50 uM CoPP): 48 mmHg
Urinary Protein ([2]; 50 uM CoPP): 3.44 gm/dL
Urine Flow ([2]; 50 uM CoPP): 0.5 cc/hr
Vasc Res (vascular resistance) ([2]; 50 uM CoPP): 0.44
reduction of GFR ([2]; CoPP increased from 5 to 25 μM): 71%
inhibition of the GFR ([3]; CoPP 50 μM): 91%
reduction of urine flow ([3]; CoPP increased from 5 to 25 μM): 66%
reduction of urine flow ([3]; CoPP increased to 50 μM): > 90%

COC(=O)[C@@H](N)CCCNC(=N)N[N+](=O)[O-] [L-NAME, N^6-nitro-L-arginine methyl ester]
mean NO3 accumulation in the perfusion solution [4]: 0.16 ± 0.1 mg/L
net weight gain (edema) [4]: 350%
NO2 ([5]; Control, kidneys perfused with L-Name): 0.17 ± 0.3 mg/dL
SCr [6]: 4.2 mg/dL

CC(=N)NCCCC[C@H](N)C(=O)O.Cl [L-NIL]
mean NO3 accumulation in the perfusion solution [4]: 0.51 ± 0.2 mg/L
net weight gain (edema) [4]: 206%
selectivity for iNOS in comparison to the constitutive endothelial NOS isoform [7]: approximately 28 fold

N=C(N)NCCC[C@H](N)C(=O)O [L-arginine]
NO2 ([5]; L-arginine 18 mg, n = 3): 1.2 ± 0.1 mg/dL
NO2 ([5]; L-arginine 35 mg, n = 3): 3.1 ± 0.1 mg/dL
NO2 ([5]; L-arginine 70 mg, n = 3): 5.8 ± 0.3 mg/dL
NO2 ([5]; L-arginine 140 mg, n = 3): 11.2 ± 0.5 mg/dL
NO3 ([8]; perfusion time 4 hours, target 200 ug/L/hr+/−10): 203 µg/L/h
NO3 ([8]; perfusion time 8 hours): 180 µg/L/h
NO3 ([8]; perfusion time 12 hours): 205 µg/L/h
NO3 ([8]; perfusion time 16 hours): 195 µg/L/h
NO3 ([8]; perfusion time 20 hours): 201 µg/L/h
NO3 ([8]; perfusion time 24 hours): 210 µg/L/h
NO3 ([8]; perfusion time 28 hours): 195 µg/L/h
NO3 ([8]; perfusion time 32 hours): 202 µg/L/h
NO3 ([8]; perfusion time 36 hours): 210 µg/L/h
NO3 ([8]; perfusion time 40 hours): 190 µg/L/h
NO3 ([8]; perfusion time 44 hours): 203 µg/L/h
NO3 ([8]; perfusion time 48 hours): 209 µg/L/h

CC(=O)OCC[N+](C)(C)C [acetylcholine]
decreased perfusion pressure ([9]; acetylcholine 1.0 mg, Group 1): 8 mmHg
vascular flow rate after vasodilation ([9]; acetylcholine 1.0 mg, Group 1): > 150 cc/min
mean drop in systolic pressures [10]: 20 mmHg
time to vasodilation after administration [10]: ≤ 5 min
time to decrease in mean arterial pressure ([11]; Group 1): ≤ 5 min
decrease in mean arterial pressure ([11]; Group 1, perfusion with the solution of the invention): 10 mmHg

C[C@@H]1C[C@H]2[C@@H]3CCC4=CC(=O)C=C[C@]4(C)[C@@]3(F)[C@@H](O)C[C@]2(C)[C@@]1(O)C(=O)CO [dexamethasone]
mean NO3 accumulation in the perfusion solution [4]: 0.18 ± 0.1 mg/L

nitroprusside
decrease in the mean arterial pressures ([9]; nitroprusside 1.0 mg, heparinized blood perfusion): did not lead to an appreciable decrease
decrease in the mean arterial pressures ([9]; nitroprusside 10.0 mg, heparinized blood perfusion): 6 mmHg
decrease in the mean arterial pressures ([9]; nitroprusside 100 mg, excessive vascular flow associated with renal damage): profound decrease
